Experiments:
MDA-MB-231 cells [1] = test: DOX sensitivity, MTT viability assay, MDA-MB-231 cells expressing peptides; format: cell-based, human; conditions: for sensitivity to DOX treatment: DOX 1 uM 48 hrs
Experimental: A. Transient transfection of the C43-4 peptide plasmid into human triple negative MDA-MB-231 breast cancer cells followed by Western blot analysis of lysates against Cyclin B, Securin and Cdc20 showing enhanced protein loss. B. Cells in A were treated with DOX (1 uM) for 48 hrs with cell viability measured using an MTT assay kit. The experiment was done in triplicate with standard error of the means shown.
A. Stable integration of C43-4 in MDA-MB-231 cells was established by selection of transfected cells on Geneticin for 7 days. Westerns against APC substrates show APC activation. B. Cells in A were treated with DOX (1 uM) for 48 hrs with cell viability measured using an MTT assay kit. Mean and SEM of 3 biological repeats.
A. TNBC MDA-MB-231 cells stably expressing APC binding peptides activate the APC. Cells were grown to confluence and then used to prepare protein lysates. The lysates were used to measure levels of the APC substrate CDC20, which will be reduced if the APC is activated. Cells stably expressing the pcDNA empty vector were used as a control. B. In a similar experiment, MDA-MB-231 cells stably expressing the APC binding peptides shown, or the empty vector control, were used to measure protein levels of the APC substrate HURP using Westerns. C. Triplicate blots as in B were scanned, normalized to tubulin and plotted. Error of the mean is shown. Significant changes are indicated. D. MDA-MB-231 cells stably expressing the empty pcDNA vector, or the C43-4 and C13-3 APC binding peptides, were treated with 1 μM Doxorubicin for 24 hrs. Cell viability was measured using an MTT viability assay.
In FIG. 26B, MDA-MB-231 cells were also stably transfected with the peptides C1-8, C2-4B, C3-1B, and C9-5. Levels of the APC substrate HURP were measured in lysates prepared from these cells. […] The empty vector pcDNA was also stably expressed in 231 cells and used as a control.

APC (substrate Cyclin B) = test: Cyclin B protein levels in MCF7 cells; format: cell-based, human; conditions: MCF7, 48 hrs; 1 mM metformin or transient transfection of peptide plasmid
Experimental: MCF7 breast cancer cells were treated with 1 mM metformin or transiently transfected with an APC activating peptide (C43-4) for 48 hrs, then harvested for assessment of Cyclin B protein levels. Cyclin B is an APC target.
A mouse model for growing patient derived breast tumor cells obtained from a patient with triple negative breast cancer was developed. This patient had developed resistance to Doxorubicin. Tumors growing in these mice grow rapidly. Mice growing the patient derived xenografted (PDX) tumor were injected with various amounts of M2I-1. […] Since the APC was activated in the canines tested in this study following treatment with metformin, it was asked if metformin can directly activate the APC. Reduced APC substrate Cyclin B levels following metformin treatment in human MCF7 breast cancer cells was observed, similar to that observed when MDF7 cells express the C43-4 plasmid (see below for more on this plasmid) (FIG. 21).

wild type (WT) cells = test: C43-4 mutant peptides, spot dilution under temperature and UV stress, WT cells; format: cell-based, yeast; conditions: low level expression on glucose
Experimental: The cells were exposed to 5 sec of UV from a UV box prior to incubation. The plus signs define growth compared to the empty vector control.
Residues 2, 7, 8, 10, 12 and 14 of peptide C43-4 are conserved with Htz1. All of these residues were mutated to alanine (FIG. 10). Peptides that contained mutations designed to determine which amino acids were required for function were generated. These mutant peptides were grown in wild type cells and in cells that had APC10 mutated, under temperature and UV stress conditions (FIGS. 10-12).
These cells were spot diluted on Trp^− plates and grown at the temperatures shown and/or exposed to ultraviolet (UV) irradiation (FIGS. 10-12). At low level expression on glucose, some of the mutations caused stress dependent phenotypes.
• 1. Cells were cultured overnight in Trp^− 2% glucose media • 2. The growth of the cells was determined by measuring the optical density (OD) of the cells at 600 nm (OD600) • 3. Cells were diluted to OD600 of 1 with fresh culture media • 4. 100 ul of each culture was pipetted into a well of a 96 well plate • 5. 10 ul of the each starting culture was pipetted into 90 ul of water in 4 additional wells to make a 10-fold serial spot dilution • 6. 5 ul from each serial dilution was spotted onto plates containing standard growth media with either 2% glucose or 2% galactose using a multi-pipettor • 7. The plates were exposed to UV • 8. […]

apc5^CA cells = test: Yeast replicative lifespan (RLS) assay; format: cell-based
Experimental: (§1) A. apc5^CA (temperature sensitive allele) cells were transformed with C43-4 or an empty vector. Cells grown overnight in 2% Glu were struck onto 2% Glucose plates and used for the yeast RLS assay. From the top left hand corner of the figures, top line is WT +empty vector, middle line is apc5^CA+C43-4 peptide and bottom line is apc5^CA+empty vector. B. WT cells transformed with C43-4, C2-4B or an empty vector were grown to stationary phase in 2% Glu media, then after 2 days spot diluted onto 2% Glu or 2% Gal to induce expression of the peptides.

WT cells = test: Stationary phase WT cells spot diluted (chronological lifespan / stress resistance); format: cell-based, yeast; conditions: FIG. 2B; for stress resistance: WT cells grown to stationary phase, spot diluted; for chronological lifespan: WT cells
Experimental: as §1

MDA-MB-231 cells [2] = test: Scratch assay, migration of MDA-MB-231 cells; format: cell-based, human
Experimental: A. An equal number of MDA-MB-231 TNBC cells were grown to confluence in 6 well plates. The cells were then treated with increasing doses of metformin (0, 1, 5 and 10 mM) and a scratch was made in the cell lawn creating a void. At the times shown the number of cell that migrated into the void were counted. The experiment was repeated twice. B. WT MDA-MB-231 cells and cells stably expressing the C43-4 plasmid were grown as in A. Control cells were left untreated, with other cells treated with the DMSO control, 1 uM DOX or 2.5 uM M2I-1. A void was created in the cell lawn and the number of cells that entered the void were scored as above. This experiment was repeated 4 times. This experiment was also repeated 4 times in an independently generated stable C43-4 cell line with similar results. The error of the mean is shown. C. WT and MDA-MB-231 cells stably expressing the C2-4B peptide plasmid were used for the scratch assay as described above. D. WT and MDA-MB-231 cells stably expressing the C13-3 peptide plasmid were used for the scratch assay as described above. The experiments in C and D were only performed once.
Assays using WT and C43-4 expressing cells have been done 4 times. Assays using C13-3 and C2-4B cells have only been conducted once. Metformin treated cells have been used twice. For scratch assays, a scratch is made down a confluent plate of cells, leaving a void. The number of cells that migrate back into the void over time is determined.

| Sequence | synergy with Doxorubicin (killing effect) (MDA-MB-231 cells [1]; stably transfected, 1 uM Doxorubicin 24 hours) | sensitivity to DOX treatment (MDA-MB-231 cells [1]; stably transfected) | sensitivity to DOX treatment (MDA-MB-231 cells [1]; transiently transfected) | APC substrate Cyclin B protein levels (APC (substrate Cyclin B)) | stress resistance (growth compared to empty vector) (wild type (WT) cells) | replicative lifespan (apc5^CA cells) | stress resistance (WT cells) | chronological lifespan (WT cells) | metastatic potential / in vitro migration (MDA-MB-231 cells [2]) |
| --- | --- | --- | --- | --- | --- | --- | --- | --- | --- |
| NGSSHNDLRVRRLTLISRLC [C43-4] | synergize | resensitized | resensitized | reduces protein levels | increased stress resistance | increased replicative lifespan | increase stress resistance | improved chronological lifespan | inhibit the in vitro migration |
| RMPQWWQWMWV [C2-4B] |  |  |  |  |  |  | increase stress resistance | improved chronological lifespan | inhibit the in vitro migration |
